Laboratory results from patent US20040086553A1, “Foods and beverages for whitening and orally administered whitening agents” (The Nisshin OilliO, Ltd., priority 2000, published 2004).
Where two headings read alike, the source gives them in different places.

Experiments:
B-16 melanoma cells = experiment: Evaluation of melanin production-inhibitory function (degree of whiteness of cultured cells); assay type: cell-based; on Evaluation of Melanin Production-Inhibition (degree of whiteness of cells): key: ++: The degree of whiteness is higher than that observed for the positive control; +: The degree of whiteness is almost identical to that of the positive control; ±: The degree of whiteness is not higher than that observed for the positive control, but higher than that observed for control; −: The degree of whiteness is almost identical to that observed for the control
Excerpt: The melanin production-inhibitory function of the 5-membered ring-containing triterpenes incorporated into the foods or beverages and orally administered whitening agents of the present invention can be determined by a test method, which makes use of cultured melanocytes. The term “melanocyte(s)” used herein means cells having an ability of producing melanin and when cultivating these cells in the usual manner, the cells are blackened due to the accumulation of melanin pigment thus produced. Contrary to this, if a substance having such a melanin production-inhibitory function is incorporated into this cultivation system, the melanin production is suppressed and the skin is relatively whitened. The melanin production-inhibitory function can likewise be evaluated on the basis of this degree of relative whitening.
A culture medium (2 mL/well) was dispensed to a 6-well plate, a predetermined amount of B-16 melanoma cells was inoculated into the culture medium in each well and the cells were cultured at 37° C. and 5% CO2 by allowing the culture medium to stand. On the next day, a solution of test sample (each 5-membered ring-containing triterpene to be evaluated) having a predetermined concentration was added to and mixed with the culture medium and the cultivation was continued. On the 5th day from the initiation of the cultivation, the culture medium was exchanged and the test sample solution was again added to each well. On the next day, the culture medium was removed from each well to thus recover the cells, followed by washing the cells with PBS (phosphate-buffered physiological saline) and evaluation of the desired function based on the degree of whiteness of the cells. In this connection, the melanin production-inhibitory effect was evaluated by comparing the resulting degree of whiteness with that observed when 450 ppm of vitamin C-magnesium phosphate having a known effect was added instead of the test sample solution (positive control) and that observed when any test sample was not added (control) according to the following criteria.
The evaluation criteria for the degree of whiteness of cells are as follows: […]

[1] = tested on: deposition of melanin pigment on the skin induced by the UV light irradiation; experiment: Animal test for the confirmation of whitening effect (UV-induced skin pigmentation, test feed); assay type: in vivo, Brown guinea pigs; conditions: free ingestion, 4 weeks; for Evaluation Results CI: number of 7 animals ranked Conspicuous Imp.; for Evaluation Results MI: number of 7 animals ranked Medium Imp.; for Evaluation Results NC: number of 7 animals ranked No Change; for Evaluation Results SI: number of 7 animals ranked Slight Imp.
Excerpt: More specifically, the whitening effect can be evaluated by removing a half of the hair on the back of each brown guinea pig, keeping these animals over 2 weeks while irradiating the hair-removed area with a UV lamp, dividing these guinea pigs into groups in such a manner that there is not any difference in the degree of the melanin pigmentation induced by the UN light irradiation, allowing the animals in each group to freely take a test food comprising a feed having a low vitamin C content to which a variety of triterpenes have been added and keeping these animals over additional 4 weeks to evaluate the degree of skin pigmentation while comparing the same with those observed for a control group and for a positive control group.
Brown guinea pigs (5-week-old male animals) were preliminarily kept for one week using a commercially available feed (CG-7 available from Nippon Kurea Company), a half of the hair on the back was removed and the hair-removed portion on the back was irradiated with light rays emitted from a UV lamp of 1.2 mW for 5 minutes on the 1st day and then with light rays emitted from a UV lamp of 1.0 mW for 5 minutes on the 2nd and 3rd days. Subsequently, these animals were kept over 2 weeks using a feed having a low vitamin C content (200.0 mg/kg feed), these guinea pigs were divided into 12 groups (comprising 7 animals each) in such a manner that there was not observed any difference in the degree of deposition of melanin pigment on the skin induced by the UV light irradiation between groups and then the animals were allowed to freely ingest each test feed comprising the feed having a low vitamin C content to which each triterpene had been added in an amount specified in the following Table 2. In this respect, however, the vitamin C-deficient feed per se was supplied to the control group and a vitamin C-supplemented feed was supplied to the positive control group. After 4 weeks from the supply of the test feed, the degree of the pigmentation of the skin was evaluated according to the following criteria.

[2] = Concentration 2 ppm, rank vs 450 ppm vitamin C-magnesium phosphate
[3] = Concentration 4 ppm, rank vs 450 ppm vitamin C-magnesium phosphate
[4] = Concentration 6 ppm, rank vs 450 ppm vitamin C-magnesium phosphate
[5] = Concentration 8 ppm, rank vs 450 ppm vitamin C-magnesium phosphate
[6] = Concentration 10 ppm, rank vs 450 ppm vitamin C-magnesium phosphate
[7] = compared with 450 ppm of vitamin C-magnesium phosphate

SMILES | Evaluation of Melanin Production-Inhibition (degree of whiteness of cells) (B-16 melanoma cells; [2]) | Evaluation of Melanin Production-Inhibition (degree of whiteness of cells) (B-16 melanoma cells; [3]) | Evaluation of Melanin Production-Inhibition (degree of whiteness of cells) (B-16 melanoma cells; [4]) | Evaluation of Melanin Production-Inhibition (degree of whiteness of cells) (B-16 melanoma cells; [5]) | Evaluation of Melanin Production-Inhibition (degree of whiteness of cells) (B-16 melanoma cells; [6]) | melanin production-inhibitory function relative to that observed for the positive control/standard (B-16 melanoma cells; [7]) | Evaluation Results CI ([1]; 500.0 mg/kg feed) | Evaluation Results MI ([1]; 500.0 mg/kg feed) | Evaluation Results NC ([1]; 500.0 mg/kg feed) | Evaluation Results SI ([1]; 500.0 mg/kg feed) | Evaluation of Melanin Production-Inhibition (degree of whiteness of cells) (B-16 melanoma cells) | concentration at which the function is identical to that observed for 450 ppm of the positive control (B-16 melanoma cells) [ppm] | melanin production-inhibitory function relative to that observed for the positive control/standard (B-16 melanoma cells) | Evaluation Results CI ([1]; 250.0 mg/kg feed) | Evaluation Results CI ([1]; 500.0 mg/kg feed, 500 mg/kg) | Evaluation Results MI ([1]; 250.0 mg/kg feed) | Evaluation Results NC ([1]; 250.0 mg/kg feed) | Evaluation Results SI ([1]; 250.0 mg/kg feed) | Evaluation Results SI ([1]; 500.0 mg/kg feed, 500 mg/kg) | Evaluation of Melanin Production-Inhibition (degree of whiteness of cells) (B-16 melanoma cells; Concentration 15 ppm, rank vs 450 ppm vitamin C-magnesium phosphate)
C[C@H]1[C@H](C)CC[C@]2(C(=O)O)CC[C@]3(C)C(=CC[C@@H]4[C@@]5(C)CC[C@H](O)C(C)(C)[C@@H]5CC[C@]43C)[C@H]12 [Ursolic acid] | ± | + | ++ | ++ | ++ | about 110 times | 4 | 2 | 0 | 1 |  |  |  |  |  |  |  |  |  | 
CC1(C)CC[C@]2(C(=O)O)CC[C@]3(C)C(=CC[C@@H]4[C@@]5(C)C[C@@H](O)[C@H](O)C(C)(C)[C@@H]5CC[C@]43C)[C@@H]2C1 [Purified maslinic acid 1, maslinic acid] |  |  |  |  |  |  |  | 3 | 0 |  | ± and + and ++ | 4 | about 110 times | 2 | 4 | 3 | 0 | 2 | 0 | 
C=C(C)[C@@H]1CC[C@]2(C(=O)O)CC[C@]3(C)[C@H](CC[C@@H]4[C@@]5(C)CC[C@H](O)C(C)(C)[C@@H]5CC[C@]43C)[C@@H]12 [Betulinic acid] | − |  | ± |  | + | about 20 times | 2 | 4 | 0 | 1 |  |  |  |  |  |  |  |  |  | 
CCOC(=O)[C@]12CCC(C)(C)C[C@H]1C1=CC[C@@H]3[C@@]4(C)C[C@@H](O)[C@H](O)C(C)(C)[C@@H]4CC[C@@]3(C)[C@]1(C)CC2 [Compound of Synthetic Example 1, Ethyl Maslinate] | ± | + | ++ | ++ | ++ | about 110 times | 2 | 3 | 1 | 1 |  |  |  |  |  |  |  |  |  | 
C[C@H]1[C@H](C)CC[C@]2(CO)CC[C@]3(C)C(=CC[C@@H]4[C@@]5(C)CC[C@H](O)C(C)(C)[C@@H]5CC[C@]43C)[C@H]12 [Uvaol] | − |  | − |  | + | about 40 times | 1 | 4 | 1 | 1 |  |  |  |  |  |  |  |  |  | 
CC(=O)O[C@@H]1C[C@]2(C)[C@H]3CC=C4[C@@H]5CC(C)(C)CC[C@]5(C(=O)O)CC[C@@]4(C)[C@]3(C)CC[C@H]2C(C)(C)[C@H]1OC(C)=O [Compound of Synthetic Example 2, 2,3-O-di-Acetyl-Maslinic Acid] | ± | ± | + | ++ | ++ | about 75 times | 2 | 4 | 0 | 1 |  |  |  |  |  |  |  |  |  | ++
